The data set is described as follows: Rapid equilibrium dialysis (RED) plasma protein binding. The class given is in vitro ADME. The conditions noted are these: for fraction unbound at 5 h: mouse, plasma. The procedure:
A rapid equilibrium dialysis (RED) protein binding assay was performed to determine the protein binding of JNJ in plasma and brain matrix. The RED plate was obtained from Thermo Fisher Scientific (Frederick, MD, USA) for the experiment. An aliquot (200 µL) of JNJ spiked plasma/brain homogenate was poured into the donor chamber, and 400 µL dialysis buffer-PBS containing 100 mM sodium phosphate and 150 mM sodium chloride was added into the receiver compartment of each RED insert in triplicate. The plate was kept in incubation for 5 h on the orbital shaker at 37 °C. Following incubation, 50 µL plasma and buffer aliquots were collected separately, and an equal volume of opposite matrix was added. Collected samples were processed as previously described in Section 4.6 and analyzed using LC-MS/MS. Degree of protein binding (%) was calculated by the following equation:(6) Protein bound (%)=Concentrationdonor cell−Concentrationreceiver cell/Concentrationdonor cell×100
On the technique in general: In equilibrium dialysis only unbound substance equilibrates across the membrane.

Read-outs that look alike come from different tables or passages of the source.

For `Nc1nc2cc(CC[C@H]3C[C@@H](n4ccc5c(N)ncnc54)[C@H](O)[C@@H]3O)ccc2cc1Br` [JNJ, JNJ-64619178], the “Plasma Protein Binding (%)” value (mouse plasma, RED, 5 h, 37 °C, n = 3) is on record as 97 ± 3%. Moreover, the fraction unbound at 5 h was under 0.06 (RED, 5 h, 37 °C, n = 3, read-out: Plasma Protein Binding (%)) and 0.025 (read-out: fraction unbound in plasma (fu,plasma)).

The record behind these values is PMC13164762, “Development and Validation of an LC-MS/MS Method for the Quantitation of JNJ-64619178 (JNJ) in Mouse Plasma: Characterization of In Vitro and In Vivo Pharmacokinetic Properties” (Molecules, 2026).
